Data taken from patent publication US20220396569A1 (Carmot Therapeutics, Inc., priority 2021, published 2022).

Biological target: T1, human GLP-1 receptor (Homo sapiens, UniProt P43220)
T1 construct: expressed in transfected cells
Experiment: GLP-1R cAMP Assay (HitHunter cAMP accumulation)
Type: cell-based
Settings: cAMP accumulation, CHO cells stably overexpressing human GLP-1 receptor, 30 min treatment; read-out: EC50
Experimental: cAMP accumulation was measured in Chinese hamster ovary (CHO) cells stably overexpressing the human GLP-1 receptor using the HitHunter cAMP Assay for Small Molecules Kit (Eurofins). Briefly, cells were grown in Ham's F12 Nutrient Mix with 10% FBS, and lifted with Cell Dissociation Buffer, Enzyme free, PBS based (ThermoFisher). Cells were pelleted, and resuspended in Hank's buffered saline solution with 10 mM HEPES, and 625 μM 3-isobutyl-1-methylxanthine. The anti-cAMP antibody reagent was then added to cells at a 1:2 ratio and 5 μL of mixture was seeded in 384-well small volume white assay plates, at 10,000 cells/well. Cells were then treated with 50 nL compound using an ECHO 550 acoustic dispenser (Labcyte) in a 20-point dose response format in triplicate for 30 min. Cells were then lysed, and detection reagents added according to the manufacturer's protocol. After overnight incubation, luminescence was measured using a Perkin Elmer Envision plate reader. Dose response curves were analyzed using GraphPad Prism 9.0. […]

T1 sequence (P43220 24-463): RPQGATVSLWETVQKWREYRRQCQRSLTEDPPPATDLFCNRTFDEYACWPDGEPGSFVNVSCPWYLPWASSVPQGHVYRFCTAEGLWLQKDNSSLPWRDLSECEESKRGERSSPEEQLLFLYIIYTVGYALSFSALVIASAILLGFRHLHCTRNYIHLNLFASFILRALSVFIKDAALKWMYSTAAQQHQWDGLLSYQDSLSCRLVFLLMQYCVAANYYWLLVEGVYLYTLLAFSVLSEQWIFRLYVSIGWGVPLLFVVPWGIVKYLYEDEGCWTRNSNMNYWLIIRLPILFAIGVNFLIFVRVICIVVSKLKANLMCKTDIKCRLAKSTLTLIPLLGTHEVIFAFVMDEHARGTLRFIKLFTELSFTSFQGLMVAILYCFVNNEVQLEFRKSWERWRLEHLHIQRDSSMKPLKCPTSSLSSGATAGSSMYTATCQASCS

SMILES | EC50
N#Cc1ccc(OCc2nc(C3C[C@H](CF)N(Cc4nc5ccc(C(=O)O)cc5n4C[C@@H]4CCO4)C3)ccc2F)c(F)c1 (mixture of isomers) [Compound 528, 2-(((2R)-4-(6-((4-Cyano-2-fluorophenoxy)methyl)-5-fluoropyridin-2-yl)-2-(fluoromethyl)pyrrolidin-1-yl)methyl)-1-(((S)-oxetan-2-yl)methyl)-1H-benzo[d]imidazole-6-carboxylic acid] | < 50 nM
N#Cc1ccc(OCc2nc(C34CC3CN(Cc3nc5ccc(C(=O)O)cc5n3C[C@@H]3CCO3)C4)ccc2F)c(F)c1 (mixture of isomers) [Example 522, 2-((1-(6-((4-Cyano-2-fluorophenoxy)methyl)-5-fluoropyridin-2-yl)-3-azabicyclo[3.1.0]hexan-3-yl)methyl)-1-(((S)-oxetan-2-yl)methyl)-1H-benzo[d]imidazole-6-carboxylic acid] | < 50 nM
CCn1cncc1Cn1c(CN2CCC(c3cccc(Oc4ccccc4)c3)C2)nc2ccc(C(=O)O)cc21 (racemic) [Example 134, 1-((1-Ethyl-1H-imidazol-5-yl)methyl)-2-((3-(3-phenoxyphenyl)pyrrolidin-1-yl)methyl)-1H-benzo[d]imidazole-6-carboxylic acid] | 50 to 500 nM
CCn1cncc1Cn1c(CN2CCC(Cc3cccc4c3O[C@](C)(c3ccc(Cl)cc3F)O4)CC2)nc2ccc(C(=O)O)cc21 (single isomer, unassigned) [Compound 222] | < 50 nM
CCn1cncc1Cn1c(CN2CCC(Cc3cccc4c3O[C@@](C)(c3ccc(Cl)cc3F)O4)CC2)nc2ccc(C(=O)O)cc21 (single isomer, unassigned) [Compound 223] | < 50 nM
O=C(O)c1ccc2nc(CN3CC[C@@H](c4ccc(F)c(COc5ccc(Cl)cc5F)n4)C3)n(C[C@@H]3CCO3)c2c1 (single isomer, unassigned) [Compound 516] | < 50 nM
O=C(O)c1ccc2nc(CN3CC[C@H](c4ccc(F)c(COc5ccc(Cl)cc5F)n4)C3)n(C[C@@H]3CCO3)c2c1 (single isomer, unassigned) [Compound 517] | < 50 nM
N#Cc1ccc(OCc2nc([C@@H]3CCN(Cc4nc5ccc(C(=O)O)cc5n4C[C@@H]4CCO4)C3)ccc2F)c(F)c1 (single isomer, unassigned) [Compound 518] | < 50 nM
N#Cc1ccc(OCc2nc([C@H]3CCN(Cc4nc5ccc(C(=O)O)cc5n4C[C@@H]4CCO4)C3)ccc2F)c(F)c1 (single isomer, unassigned) [Compound 519] | < 50 nM
N#Cc1ccc(OCc2nc([C@@H]3C[C@@H](CF)N(Cc4nc5ccc(C(=O)O)cc5n4C[C@@H]4CCO4)C3)ccc2F)c(F)c1 (single isomer, unassigned) [Compound 526] | 50 to 500 nM
N#Cc1ccc(OCc2nc([C@@H]3C[C@@H](CF)N(Cc4nc5ccc(C(=O)O)cc5n4C[C@@H]4CCO4)C3)ccc2F)c(F)c1 (single isomer, unassigned) [Compound 527] | < 50 nM
O=C(O)c1ccc2nc(CN3CC[C@@H](c4cccc(COc5ccc(Cl)cc5Cl)c4)C3)n(C[C@@H]3CCO3)c2c1 (single isomer, unassigned) [Example 405] | < 50 nM
O=C(O)c1ccc2nc(CN3CC[C@H](c4cccc(COc5ccc(Cl)cc5Cl)c4)C3)n(C[C@@H]3CCO3)c2c1 (single isomer, unassigned) [Example 406] | < 50 nM
O=C(O)c1ccc2nc(CN3CC[C@@H](c4cccc(COc5ccc(Cl)cc5F)c4)C3)n(C[C@@H]3CCO3)c2c1 (single isomer, unassigned) [Example 411] | < 50 nM
O=C(O)c1ccc2nc(CN3CC[C@H](c4cccc(COc5ccc(Cl)cc5F)c4)C3)n(C[C@@H]3CCO3)c2c1 (single isomer, unassigned) [Example 412] | 50 to 500 nM
O=C(O)c1cc(F)c2nc(CN3CC[C@H](c4ccnc(COc5ccc(Cl)cc5F)c4)C3)n(C[C@@H]3CCO3)c2c1 (single isomer, unassigned) [Example 427] | < 50 nM
N#Cc1ccc(OCc2cc([C@H]3CCN(Cc4nc5c(F)cc(C(=O)O)cc5n4C[C@@H]4CCO4)C3)ccc2F)c(F)c1 (single isomer, unassigned) [Example 449] | < 50 nM

SMILES | EC50
CCn1cncc1Cn1c(CN2CC(Cc3cnc(COc4ccc(Cl)cc4C#N)o3)C2)nc2ccc(C(=O)O)cc21 [Compound 167, 2-{[3-({2-[(4-chloro-2-cyanophenoxy)methyl]-1,3-oxazol-5-yl}methyl)azetidin-1-yl]methyl}-1-[(1-ethyl-1H-imidazol-5-yl)methyl]-1H-1,3-benzodiazole-6-carboxylic acid] | < 50 nM
CC1(c2ccc(Cl)cn2)Oc2cccc(CC3CN(Cc4nc5ccc(C(=O)O)cc5n4C[C@@H]4CCO4)C3)c2O1 (stereo partly drawn) [Compound 172, 2-[(3-{[2-(5-chloropyridin-2-yl)-2-methyl-2H-1,3-benzodioxol-4-yl]methyl}azetidin-1-yl)methyl]-1-{[(2S)-oxetan-2-yl]methyl}-1H-1,3-benzodiazole-6-carboxylic acid] | > 500 nM
CCn1cncc1Cn1c(CN2CC(=Cc3ccnc(COc4ccc(Cl)cc4Cl)c3)C2)nc2ccc(C(=O)O)cc21 [Compound 175, 2-{[3-({2-[(2,4-dichlorophenoxy)methyl]pyridin-4-yl}methylidene)azetidin-1-yl]methyl}-1-[(1-ethyl-1H-imidazol-5-yl)methyl]-1H-1,3-benzodiazole-6-carboxylic acid] | < 50 nM
CCn1cncc1Cn1c(CN2CC(Cc3ccnc(COc4ccc(Cl)cc4Cl)c3)C2)nc2ccc(C(=O)O)cc21 [Compound 176, 2-{[3-({2-[(2,4-dichlorophenoxy)methyl]pyridin-4-yl}methyl)azetidin-1-yl]methyl}-1-[(1-ethyl-1H-imidazol-5-yl)methyl]-1H-1,3-benzodiazole-6-carboxylic acid] | < 50 nM
O=C(O)c1ccc2nc(CN3CC(Cc4ccnc(COc5ccc(Cl)cc5Cl)c4)C3)n(C[C@H]3CCOC3)c2c1 [Compound 180] | < 50 nM
O=C(O)c1ccc2nc(CN3CC(Cc4ccnc(COc5ccc(Cl)cc5Cl)c4)C3)n(Cc3ncco3)c2c1 [Compound 181, 2-{[3-({2-[(2,4-dichlorophenoxy)methyl]pyridin-4-yl}methyl)azetidin-1-yl]methyl}-1-[(1,3-oxazol-2-yl)methyl]-1H-1,3-benzodiazole-6-carboxylic acid] | < 50 nM
CCn1cncc1Cn1c(CN2CCC(Cc3cccc4c3OC(C)(c3ccc(Cl)cn3)O4)CC2)nc2ccc(C(=O)O)cc21 (stereo not shown) [Compound 184, 2-[(4-{[2-(5-chloropyridin-2-yl)-2-methyl-2H-1,3-benzodioxol-4-yl]methyl}piperidin-1-yl)methyl]-1-[(1-ethyl-1H-imidazol-5-yl)methyl]-1H-1,3-benzodiazole-6-carboxylic acid] | < 50 nM
CCn1cncc1Cn1c(CN2CC(Cc3cccc4c3OC(C)(c3ccc(Cl)cn3)O4)C2)nc2ccc(C(=O)O)cc21 (stereo not shown) [Compound 185, 2-[(3-{[2-(5-chloropyridin-2-yl)-2-methyl-2H-1,3-benzodioxol-4-yl]methyl}azetidin-1-yl)methyl]-1-[(1-ethyl-1H-imidazol-5-yl)methyl]-1H-1,3-benzodiazole-6-carboxylic acid] | 50 to 500 nM
O=C(O)c1ccc2nc(CN3CC(=Cc4ccnc(COc5ccc(Cl)cc5Cl)c4)C3)n(C[C@@H]3CCO3)c2c1 [Compound 190, 2-{[3-({2-[(2,4-dichlorophenoxy)methyl]pyridin-4-yl}methylidene)azetidin-1-yl]methyl}-1-{[(2S)-oxetan-2-yl]methyl}-1H-1,3-benzodiazole-6-carboxylic acid] | < 50 nM
O=C(O)c1ccc2nc(CN3CC(Cc4cnc(COc5ccc(Cl)cc5Cl)o4)C3)n(C[C@@H]3CCO3)c2c1 [Compound 191] | < 50 nM
N#Cc1cc(Cl)ccc1OCc1cccc(OC2CN(Cc3nc4ccc(C(=O)O)cc4n3C[C@@H]3CCO3)C2)c1 [Compound 194] | < 50 nM
O=C(O)c1ccc2nc(CN3CC(=Cc4cccc(COc5ccc(Cl)cc5Cl)c4)C3)n(C[C@@H]3CCO3)c2c1 [Compound 195] | < 50 nM
CCn1cncc1Cn1c(CN2CC(=Cc3cccc(COc4ccc(Cl)cc4Cl)c3)C2)nc2ccc(C(=O)O)cc21 [Compound 196] | < 50 nM
CCn1cncc1Cn1c(CN2CCC(Cc3cccc4c3OC(C)(c3ccc(Cl)cc3F)O4)CC2)nc2ccc(C(=O)O)cc21 (stereo not shown) [Compound 209] | < 50 nM
CCn1cncc1Cn1c(CN2CC(Oc3cccc(COc4ccc(Cl)cc4Cl)c3)C2)nc2ccc(C(=O)O)cc21 [Compound 210, 2-[(3-{3-[(2,4-dichlorophenoxy)methyl]phenoxy}azetidin-1-yl)methyl]-1-[(1-ethyl-1H-imidazol-5-yl)methyl]-1H-1,3-benzodiazole-6-carboxylic acid] | < 50 nM
CCn1cncc1Cn1c(CN2CC(Oc3ccnc(COc4ccc(Cl)cc4C#N)c3)C2)nc2ccc(C(=O)O)cc21 [Compound 211, 2-{[3-({2-[(4-chloro-2-cyanophenoxy)methyl]pyridin-4-yl}oxy)azetidin-1-yl]methyl}-1-[(1-ethyl-1H-imidazol-5-yl)methyl]-1H-1,3-benzodiazole-6-carboxylic acid] | < 50 nM
CCn1cncc1Cn1c(CN2CC(Oc3cccc(COc4ccc(Cl)cc4C#N)c3)C2)nc2ccc(C(=O)O)cc21 [Compound 212, 2-[(3-{3-[(4-chloro-2-cyanophenoxy)methyl]phenoxy}azetidin-1-yl)methyl]-1-[(1-ethyl-1H-imidazol-5-yl)methyl]-1H-1,3-benzodiazole-6-carboxylic acid] | < 50 nM
